Assay results published in patent US10125097B2, “1- [1-(benzoyl)-pyrrolidine-2-carbonyl]-pyrrolidine-2-carbonitrile derivatives” (UNIVERSITAT DE BARCELONA, priority 2012, dated 2018).

Target: human prolyl oligopeptidase (Homo sapiens (Human), UniProt P48147)
Assay: POP inhibition assay (Z-G-P-AMC substrate, fluorimetric)
Format: biochemical
Conditions: 100 mM Na/K phosphate buffer, pH 8.0, hPOP 20 to 60 nM, Z-G-P-AMC, 1 hour at 37° C.; read-out: IC50, inhibition of human prolyl oligopeptidase
Description: Expression and Purification of Prolyl Oligopeptidase (POP)
POP was obtained by expression in E. coli and affinity purification using a His tail fusion according to a literature procedure (Tarragó T et al., ChemBioChem 2006; 7:827-33) summarized below:
hPOP expression: E. coli BL21 competent cells were transformed with pETM10 hPOP. To induce expression, a pre-culture of LB medium (50 mL) containing kanamycin (50 μg/mL) was inoculated with one colony and was grown overnight at 37° C. Next day, two cultures of LB medium (500 mL) were inoculated with the overnight culture (10 mL). The inoculated cultures were grown at 37° C. and 220 rpm until the OD595 was 1.2 (2.5-3 hours). IPTG was then added (final concentration of 1 mM) and induction was performed overnight at 25° C. Cells were harvested (3500 g, 15 min, 4° C.) and the pellet was suspended in suspension buffer (50 mL) [Tris-HCl pH 8 (50 mM), NaCl (300 mM), imidazole (1 mM)] and sonicated with use of four cycles (each consisting of 15 sec of sonication and 15 sec of rest) at an intensity of 50% and 0.5 pulses, the sample being kept on ice. After sonication, the sample was centrifuged (40 000 g, 30 min, 4° C.) and the supernatant was used immediately for POP purification. An ÁKTA explorer FPLC system was used for purification. The supernatant was applied at a flow of 1 mL/min to a HiTrapQuelating column (5 mL) previously equilibrated with 5 column volumes of suspension buffer. The column was washed with suspension buffer until the absorbance at 280 nm returned to basal level. The column was then rinsed with 5 volumes of washing buffer (50 mM Tris-HCl, pH 8, 300 mM NaCl, 30 mM imidazole). The elution was performed with 4 volumes of elution buffer (50 mM Tris-HCl, pH 8, 300 mM NaCl, 500 mM imidazole). Fractions (4 mL) were collected during the entire elution. POP activity was checked in all fractions and positive ones were analyzed by SDS-PAGE and stained with Biosafe Comassie Stain G-250. Positive fractions were collected and desalted by use of a HiPrep 26/10 Desalting column with Tris-HCl (50 mM, pH 8) as buffer. Recombinant hPOP was quantified with the Bio-Rad Protein Assay with BSA as standard. Aliquots of the recombinant enzyme were prepared and immediately frozen with liquid nitrogen and stored at −80° C.
POP activity was determined following the method described by Toide et al (Toide K et al., J. Pharmacol. Exp. Ther. 1995; 274:1370-8), using Z-G-P-AMC (N-benzyloxycarbonyl-Gly-Pro-methylcoumarinyl-7-amide) as POP substrate. The reactions were performed in 96-well microtiter plates, which allowed simultaneous monitoring of multiple reactions. For each reaction, activity buffer (134 μl, 100 mM Na/K phosphate buffer, pH 8.0) was pre-incubated for 15 min at 37° C. with hPOP (ranging from 20 to 60 nM, depending on the activity of the hPOP batch) and the corresponding new compound solution (3 μl). A stock solution of new compound was prepared in DMSO (100 mM), and dilutions were prepared from this stock solution with DMSO. Alternatively, the reactions were performed using another activity buffer (141 μL, 100 mM Tris-acetate, […], 1 mM DTT, pH 7.3), pre-incubating with hPOP (10 nM) and the corresponding new compound solution (3 μl) (Conditions B).
After preincubation, Z-G-P-AMC (10 μl, 3 mM in 40% 1,4-dioxane) was added (3 μl, 1.5 mM in 40% of 1,4-dioxane, in Conditions B), and the reaction was incubated for 1 hour at 37° C. The reaction was stopped by adding sodium acetate (150 μl, 1 M, pH 4) and the formation of AMC was measured fluorimetrically. The excitation and emission wavelengths were 360/40 and 485/20 nm, respectively.
Several concentration points (ranging from 25 μM to 400 μM) were measured for each compound. The inhibitory activity on prolyl oligopeptidase was calculated according to eq 1. For each new compound, the fluorescence in the presence (a) and in the absence of hPOP (b) was measured. […]

human prolyl oligopeptidase, sequence (P48147 whole entry): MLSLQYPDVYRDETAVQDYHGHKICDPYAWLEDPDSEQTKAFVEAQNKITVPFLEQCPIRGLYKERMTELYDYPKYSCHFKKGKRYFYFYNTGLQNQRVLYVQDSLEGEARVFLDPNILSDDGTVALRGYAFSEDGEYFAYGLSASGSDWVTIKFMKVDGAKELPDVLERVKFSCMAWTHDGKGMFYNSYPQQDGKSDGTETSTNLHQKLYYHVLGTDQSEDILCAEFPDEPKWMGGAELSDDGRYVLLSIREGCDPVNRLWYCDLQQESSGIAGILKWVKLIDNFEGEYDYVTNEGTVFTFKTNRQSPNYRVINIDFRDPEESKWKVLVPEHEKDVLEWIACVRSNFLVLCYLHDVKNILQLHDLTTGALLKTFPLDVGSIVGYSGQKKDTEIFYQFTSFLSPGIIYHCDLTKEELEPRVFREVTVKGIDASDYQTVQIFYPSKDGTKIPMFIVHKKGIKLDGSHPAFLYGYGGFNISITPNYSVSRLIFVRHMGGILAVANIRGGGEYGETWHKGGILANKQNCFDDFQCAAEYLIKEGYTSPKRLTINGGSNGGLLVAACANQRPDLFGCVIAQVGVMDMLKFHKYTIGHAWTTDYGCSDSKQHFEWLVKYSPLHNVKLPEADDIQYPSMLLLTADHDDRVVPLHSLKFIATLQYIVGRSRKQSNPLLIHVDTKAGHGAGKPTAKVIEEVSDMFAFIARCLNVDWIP

COc1cc(C(=O)N2CC(F)(F)C[C@H]2C(=O)N2CCC[C@H]2C#N)cc(OC)c1OCc1ccccc1 [Example 4, (S)-1-((2S)-1-(4-(benzyloxy)-3,5-dimethoxybenzoyl)-4,4-difluoropyrrolidine-2-carbonyl)pyrrolidine-2-carbonitrile]
IC50: 48.7 nM
